Experimental data: paper PMC11995211, “Design, Synthesis, and Evaluation of a New Fluorescent Ligand for the M2 Muscarinic Acetylcholine Receptor” (ACS Medicinal Chemistry Letters, 2025)

What was measured:
hM2R = biological target: T1, hM2R (Homo sapiens, UniProt P08172); test: Radioligand competition binding, [3H]-scopolamine (N-methyl), CHO cell membranes, hM2R; settings: mean ± SD, n = 3; membranes from CHO cells transfected with hM2R; read-out: Receptor Ki M2
T1 construct: expressed in transfected cells; host or cells: CHO cell membranes
T1 sequence (P08172 1-466): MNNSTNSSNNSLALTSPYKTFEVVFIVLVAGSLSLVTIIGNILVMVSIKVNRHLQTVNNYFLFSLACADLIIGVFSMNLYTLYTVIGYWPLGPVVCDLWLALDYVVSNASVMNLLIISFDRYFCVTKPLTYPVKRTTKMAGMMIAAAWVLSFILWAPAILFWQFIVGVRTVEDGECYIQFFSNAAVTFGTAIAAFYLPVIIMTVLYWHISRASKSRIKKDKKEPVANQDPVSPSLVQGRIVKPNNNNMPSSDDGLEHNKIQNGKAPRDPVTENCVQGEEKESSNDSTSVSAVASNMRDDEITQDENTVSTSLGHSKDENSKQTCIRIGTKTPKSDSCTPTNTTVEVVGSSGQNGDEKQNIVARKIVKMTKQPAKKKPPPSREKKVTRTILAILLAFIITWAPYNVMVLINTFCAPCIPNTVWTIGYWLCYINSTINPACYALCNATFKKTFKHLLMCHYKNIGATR

hM4R = biological target: T2, hM4R (Homo sapiens, UniProt P08173); test: Radioligand competition binding, [3H]-scopolamine (N-methyl), CHO cell membranes, hM4R; settings: mean ± SD, n = 3; membranes from CHO cells transfected with hM4R; read-out: Receptor Ki M4
T2 construct: expressed in transfected cells; host or cells: CHO cell membranes
T2 sequence (P08173 1-479): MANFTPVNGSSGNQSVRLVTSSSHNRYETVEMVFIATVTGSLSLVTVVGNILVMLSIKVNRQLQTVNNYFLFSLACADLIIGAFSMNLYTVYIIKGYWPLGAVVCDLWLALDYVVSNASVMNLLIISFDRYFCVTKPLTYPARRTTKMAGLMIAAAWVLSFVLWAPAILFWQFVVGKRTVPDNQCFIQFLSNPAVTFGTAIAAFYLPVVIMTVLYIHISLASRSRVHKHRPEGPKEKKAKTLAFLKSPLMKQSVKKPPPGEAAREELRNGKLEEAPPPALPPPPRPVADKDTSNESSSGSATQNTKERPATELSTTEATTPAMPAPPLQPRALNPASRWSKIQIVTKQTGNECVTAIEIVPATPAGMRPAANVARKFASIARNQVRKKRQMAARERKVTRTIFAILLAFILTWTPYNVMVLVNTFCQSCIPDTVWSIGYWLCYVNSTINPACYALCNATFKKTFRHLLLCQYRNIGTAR

hM5R = biological target: T3, hM5R (Homo sapiens, UniProt P08912); test: Radioligand competition binding, [3H]-scopolamine (N-methyl), CHO cell membranes, hM5R; settings: mean ± SD, n = 3; membranes from CHO cells transfected with hM5R; read-out: Receptor Ki M5
T3 construct: expressed in transfected cells; host or cells: CHO cell membranes
T3 sequence (P08912 1-532): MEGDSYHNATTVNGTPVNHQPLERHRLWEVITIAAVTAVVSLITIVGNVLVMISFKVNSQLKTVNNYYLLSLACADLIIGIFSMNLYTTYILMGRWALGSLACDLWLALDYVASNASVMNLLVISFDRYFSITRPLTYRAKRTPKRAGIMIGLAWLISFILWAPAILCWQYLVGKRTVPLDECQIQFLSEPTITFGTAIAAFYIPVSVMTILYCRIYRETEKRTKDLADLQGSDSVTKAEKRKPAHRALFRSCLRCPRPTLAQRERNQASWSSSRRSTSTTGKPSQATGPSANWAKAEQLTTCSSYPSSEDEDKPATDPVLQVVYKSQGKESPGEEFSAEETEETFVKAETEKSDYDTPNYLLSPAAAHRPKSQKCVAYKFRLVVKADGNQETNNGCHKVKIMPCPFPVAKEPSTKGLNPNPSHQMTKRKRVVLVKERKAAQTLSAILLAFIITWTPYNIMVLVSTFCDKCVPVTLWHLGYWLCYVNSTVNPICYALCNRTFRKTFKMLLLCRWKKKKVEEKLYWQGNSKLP

M2R = biological target: T4, M2R (Homo sapiens, UniProt P08172); test: BRET-based TRUPATH GoA activation assay, antagonism of carbachol-induced G protein activation; format: cell-based
T4 sequence (P08172 1-466): T1 sequence (P08172 1-466)

GLuc–M2R = biological target: T5, GLuc–M2R (Homo sapiens, UniProt P08172); test: BRET-based ligand binding on HEK 293T cells expressing GLuc–M2R
T5 construct: expressed in transfected cells
T5 sequence (P08172 1-466): T1 sequence (P08172 1-466)

M2R–Cerulean = biological target: T6, M2R–Cerulean (Homo sapiens, UniProt P08172); test: Confocal microscopy labeling of live HEK 293T cells; format: cell-based
T6 construct: expressed in transfected cells
T6 sequence (P08172 1-466): T1 sequence (P08172 1-466)

HA–M2R = biological target: T7, HA–M2R (Homo sapiens, UniProt P08172); test: Two-photon microscopy labeling of live HEK 293T cells; format: cell-based; settings: 300 nM
T7 sequence (P08172 1-466): T1 sequence (P08172 1-466)
Description: We examined live M2R cells with two-photon microscopy as well (Figure ). A labeling pattern similar to that observed in the confocal microscopy studies was identified. Figure A illustrates 33 labeling in HA–M2R-transfected cells. […] Similarly to the confocal images, no dye labeling was detected inside the cells. Figure B presents a microscopic image of nontransfected cells, showing a minor degree of autofluorescence. […] For additional two-photon images, see Figures S7 and S8. […]
were examined using a two-photon laser scanning system (Femto2D-uncage, Femtonics Ltd., Budapest, Hungary). The imaging laser (Chameleon Ultra II, Coherent Ltd., Santa Clara, CA, USA) was set to 820 nm and to 2-3% intensity. The excitation was delivered to the slices and the fluorescent signal was collected using an XLUMPlanFI 20x lens (Olympus, Tokyo, Japan).
Before image acquisition, cells were washed twice, and the medium was replaced to modified Krebs–Ringer solution. After capturing the zero-point image, we added 300 nM 33. After two minutes we captured images in 33 and infrared transmission channels. After 3 minutes, unbound 33 was removed by washing the cells with modified Krebs–Ringer solution, and the image […]
(1 picture or pasted object on this page, not shown here)

Ki (hM2R): 0.0024 ± 0.0004 µM
Ki (hM4R): 0.0541 ± 0.0104 µM
Ki (hM5R): 0.182 ± 0.023 µM
mode of antagonism of carbachol-induced G protein activation (M2R; TRUPATH GoA assay): competitive antagonists
Log(IC50) ± SD (M), carbachol-induced GoA protein activation (M2R; log10 of IC50 (negative values), HEK 293T, compound 20 min, then 10 μM carbachol 15 min, Hill-slope = 1, n = 3): –7.39 ± 0.09 M
Kd (GLuc–M2R; 1-hour treatment, nonspecific with 100 μM atropine, read-out: dissociation constant (KD), equilibrium BRET-based ligand binding): 0.119 µM
kon (GLuc–M2R; BRET-based kinetic ligand binding, read-out: association rate constant): 8060 M⁻¹ s⁻¹
koff (GLuc–M2R; read-out: dissociation rate constant): 0.000867 s⁻¹
labeling of M2R–Cerulean-expressing cells (M2R–Cerulean; 300 nM, 3 min, live transfected HEK 293T): significant labeling
labeling of nontransfected cells (M2R–Cerulean; 300 nM, 3 min, nontransfected HEK 293T): no labeling was observed
labeling after atropine pretreatment (M2R–Cerulean; 100 μM atropine 5 min before 300 nM 33): no labeling
labeling of HA–M2R-transfected cells (HA–M2R; excited at 820 nm, live HEK 293T): selectively only at the plasma membrane
labeling of nontransfected cells (HA–M2R; nontransfected HEK 293T): no receptor labeling was observed
SMILES: O=C(CCOCCOCCNC(=O)c1ccc(-c2c3cc(F)c(=O)cc-3oc3cc(O)c(F)cc23)c(C(=O)O)c1)NCCOCCOCCNc1ccccc1C(=O)N1CCC(N2CCC(Cc3ccc(S(=O)(=O)c4cccc(Cl)c4)cc3)CC2)CC1 [Compound 33]
